Experimental data published in ChEMBL document CHEMBL1130867, “Ascorbic acid-based inhibitors of alpha-amylases” (Bioorg Med Chem Lett, 1998).

Assays:
Settings in all cases: concentration not given here
[1] = test system: Alpha-amylase (Hordeum vulgare); assay: Inhibition of malt alpha-amylase; set-up: concentration or dose not given beside the values
[2] = biological target: T1, Alpha-amylase 1A (Homo sapiens) (UniProt P0DUB6); assay: Inhibition of salivary alpha-amylase
T1 sequence (whole entry): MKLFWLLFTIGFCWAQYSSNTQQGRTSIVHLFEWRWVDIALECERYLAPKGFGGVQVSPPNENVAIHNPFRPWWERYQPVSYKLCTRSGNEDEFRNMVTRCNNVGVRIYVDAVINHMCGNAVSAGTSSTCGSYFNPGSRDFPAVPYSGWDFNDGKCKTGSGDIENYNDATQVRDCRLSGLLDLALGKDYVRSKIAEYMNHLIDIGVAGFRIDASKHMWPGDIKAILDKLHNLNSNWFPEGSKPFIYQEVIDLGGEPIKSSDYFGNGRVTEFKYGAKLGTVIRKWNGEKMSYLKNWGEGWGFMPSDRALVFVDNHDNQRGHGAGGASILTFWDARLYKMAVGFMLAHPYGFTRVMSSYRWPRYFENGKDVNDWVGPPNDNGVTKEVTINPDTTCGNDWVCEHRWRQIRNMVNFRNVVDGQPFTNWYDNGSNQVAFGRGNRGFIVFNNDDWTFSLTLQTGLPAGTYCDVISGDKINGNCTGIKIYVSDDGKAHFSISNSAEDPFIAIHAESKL

[3] = biological target: T2, Pancreatic alpha-amylase (Homo sapiens) (UniProt P04746); assay: Inhibition of pancreatic alpha-amylase; set-up: concentration or dose not given beside the values
T2 sequence (whole entry): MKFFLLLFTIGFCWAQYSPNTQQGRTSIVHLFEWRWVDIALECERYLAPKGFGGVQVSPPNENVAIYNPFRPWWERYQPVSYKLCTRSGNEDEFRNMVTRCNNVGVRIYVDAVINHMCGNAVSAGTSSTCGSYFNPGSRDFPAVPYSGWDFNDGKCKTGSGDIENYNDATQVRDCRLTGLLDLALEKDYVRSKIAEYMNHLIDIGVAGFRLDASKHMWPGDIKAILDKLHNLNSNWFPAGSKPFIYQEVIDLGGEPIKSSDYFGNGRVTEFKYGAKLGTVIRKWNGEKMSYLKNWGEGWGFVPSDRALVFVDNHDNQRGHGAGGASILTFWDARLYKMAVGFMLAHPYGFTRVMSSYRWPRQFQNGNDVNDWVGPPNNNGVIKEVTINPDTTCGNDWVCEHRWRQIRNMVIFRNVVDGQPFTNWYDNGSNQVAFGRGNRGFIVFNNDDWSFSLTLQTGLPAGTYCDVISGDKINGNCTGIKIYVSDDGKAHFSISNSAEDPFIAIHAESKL

Fungi = assay: Inhibition of fungal alpha-amylase; set-up: concentration or dose not given beside the values
Bacteria = assay: Inhibition of Alpha-amylase; set-up: concentration or dose not given beside the values

| Structure (SMILES) | inhibition [1] | inhibition [2] | inhibition [3] | inhibition (Fungi) | inhibition (Bacteria) |
| --- | --- | --- | --- | --- | --- |
| CCC(=O)OCC(O)C1OC(=O)C(OC)=C1OC (centres undefined) | 7% |  |  |  |  |
| CCCCCCCCCCCCCCCC(=O)OC[C@H](O)[C@H]1OC(=O)C(O)=C1O |  | 69% | 88% | 70% | 84% |
| COC1=C(OC)C(C(O)CO)OC1=O (centres undefined) | 4% |  |  |  |  |
| COC1=C(OC)C(C(O)COC(C)=O)OC1=O (centres undefined) | 3% |  |  |  |  |
| CCCC(=O)OCC(O)C1OC(=O)C(OC)=C1OC (centres undefined) | 10% |  |  |  |  |
| CC(=O)OCC(OC(C)=O)C1OC(O)=C(O)C1=O (centres undefined) | 89% |  | 99% | 91% | 92% |
| COC1=C(OC)C(C(COC(C)=O)OC(C)=O)OC1=O (centres undefined) | 0% |  |  |  |  |

Further lines, results first:

| inhibition [1] | inhibition [2] | inhibition [3] | inhibition (Fungi) | inhibition (Bacteria) | Structure (SMILES) |
| --- | --- | --- | --- | --- | --- |
| 9% |  |  |  |  | COC1=C(OC(C)=O)C(C2COC(C)(C)O2)OC1=O (centres undefined) |
|  | 100% | 100% | 98% | 99% | O=C1O[C@H]([C@@H](O)CO)C(O)=C1O (stereo in doubt; 1b) |
| 29% |  | 0% | 17% | 8% | COC1=C(O)C(=O)OC1C1COC(C)(C)O1 (centres undefined) |
| 2% |  |  |  |  | COC1=C(OC)C(C2COC(C)(C)O2)OC1=O (centres undefined) |
| 9% |  |  |  |  | COC1=C(O)C(=O)OC1C(O)CO (centres undefined) |
| 90% | 88% | 99% | 94% | 98% | CC1(C)OCC(C2OC(=O)C(O)=C2O)O1 (stereo in doubt; 2a) |
| 93% | 98% | 99% | 91% | 93% | CC1(C)OCC(C2OC(=O)C(O)=C2O)O1 (stereo in doubt; 2b) |
